From DBAASP
In brackets after ≈: the same amount, converted by molar mass. Each block holds one compound with its values, some of them ahead of it.

What was measured:
Assay in all cases: ≥ marks a high value that may be exact or a test limit, other limits are often not marked, values filed in µg/mL are converted to µM
[1] = system: Bacillus subtilis ATCC 6051
[2] = system: Aspergillus fumigatus
[3] = system: Candida albicans
[4] = system: Escherichia coli K-12
[5] = system: Klebsiella pneumoniae
[6] = system: Pseudomonas aeruginosa PAO1
[7] = system: Staphylococcus aureus NCTC 8325-4
[8] = system: Staphylococcus aureus ATCC 6538P
[9] = system: Escherichia coli JM109
[10] = system: Staphylococcus aureus
[11] = system: Bacillus subtilis
[12] = system: Enterococcus faecalis ATCC 29212
[13] = system: Escherichia coli
[14] = system: Klebsiella pneumoniae ATCC 13883
[15] = system: Pseudomonas aeruginosa ATCC 27853
[16] = system: Salmonella enterica subsp. enterica serovar Typhimurium ATCC 14028
[17] = system: Staphylococcus aureus ATCC 25923
[18] = system: Streptococcus pyogenes ATCC 19615
[19] = system: Staphylococcus aureus USA 300 LAC
[20] = system: Staphylococcus aureus USA 300
[21] = system: Acinetobacter baumannii CICC 22934
[22] = system: Bacillus cereus AS1.126
[23] = system: Enterobacter cloacae CGMCC 1.58
[24] = system: Enterococcus faecalis CGMCC 1.595
[25] = system: Enterococcus faecium CGMCC 1.2334
[26] = system: Escherichia coli AS1.349
[27] = system: Klebsiella aerogenes CGMCC 1.876
[28] = system: Klebsiella pneumoniae subsp. pneumoniae CGMCC 1.176
[29] = system: Lactococcus lactis AS1.1690
[30] = system: Proteus mirabilis CICC 22931
[31] = system: Pseudomonas aeruginosa CGMCC 1.860
[32] = system: Staphylococcus aureus AS1.72
[33] = system: Escherichia coli ATCC 25922

SMILES: CC(C)C[C@H](NC(=O)[C@H](C)N)C(=O)N[C@@H](Cc1c[nH]c2ccccc12)C(=O)N[C@@H](Cc1cnc[nH]1)C(=O)N[C@@H](Cc1cnc[nH]1)C(=O)N[C@@H](CC(C)C)C(=O)N[C@@H](CC(C)C)C(=O)N[C@@H](Cc1cnc[nH]1)C(=O)N[C@@H](Cc1cnc[nH]1)C(=O)N[C@@H](CC(C)C)C(=O)N[C@@H](CC(C)C)C(=O)N[C@@H](Cc1cnc[nH]1)C(=O)N[C@@H](CO)C(=O)N[C@@H](C)C(=O)N[C@@H](Cc1cnc[nH]1)C(=O)N[C@@H](Cc1cnc[nH]1)C(=O)N[C@@H](CC(C)C)C(=O)NCC(N)=O [ALWHHLLHHLLHSAHHLG]
MIC [1]: 1.88 µM (≈ 3.99 µg/mL)

SMILES: N[C@@H](Cc1ccccc1)C(=O)N1CCC[C@H]1C(=O)N[C@@H](Cc1c[nH]c2ccccc12)C(=O)N[C@@H](Cc1c[nH]c2ccccc12)C(=O)N[C@@H](Cc1c[nH]c2ccccc12)C(=O)N1CCC[C@H]1C(=O)N[C@@H](Cc1ccccc1)C(=O)O [FPWWWPF]
MIC [2]: ≥ 469 µM
MIC [3]: > 939 µM

SMILES: CC[C@H](C)[C@H](N)C(=O)N[C@@H](CCCCN)C(=O)N[C@@H](CCCCN)C(=O)N[C@H](C(=O)N[C@H](C(=O)N[C@@H](CCCCN)C(=O)N[C@@H](CCCCN)C(=O)N[C@H](C(N)=O)[C@@H](C)CC)[C@@H](C)CC)[C@@H](C)CC [IKKIIKKI]
MIC [4]: ≥ 500 µM
MIC [5]: > 500 µM
MIC [6]: > 500 µM
MIC [7]: ≥ 500 µM

SMILES: CC(C)C[C@H](NC(=O)[C@H](CC(C)C)NC(=O)[C@H](CCCCN)NC(=O)[C@H](CC(C)C)NC(=O)[C@H](CC(C)C)NC(=O)[C@H](CCCCN)NC(=O)[C@H](CCCCN)NC(=O)[C@H](CC(C)C)NC(=O)[C@@H](N)CC(C)C)C(N)=O [LLKKLLKLL]
MIC [1]: 1.56 µM (≈ 1.69 µg/mL)
MIC [4]: 1.56 µM (≈ 1.69 µg/mL)
MIC [6]: 1.56 µM (≈ 1.69 µg/mL)
MIC [8]: 1.56 µM (≈ 1.69 µg/mL)

SMILES: CC(C)C[C@H](N)C(=O)N[C@@H](Cc1ccc(O)cc1)C(=O)N[C@@H](CCCN=C(N)N)C(=O)N[C@@H](CCCN=C(N)N)C(=O)N[C@@H](CCCN=C(N)N)C(=O)N[C@@H](Cc1ccccc1)C(=O)N[C@H](C(=O)N[C@H](C(=O)NCC(=O)N[C@@H](CCCN=C(N)N)C(N)=O)C(C)C)C(C)C [LYRRRFVVGR]
MIC [11]: ≥ 50 µM
MIC [12]: 25 µM (≈ 33 µg/mL)
MIC [13]: 50 µM (≈ 66 µg/mL)
MIC [14]: ≥ 200 µM
MIC [15]: 200 µM (≈ 264 µg/mL)
MIC [16]: 200 µM (≈ 264 µg/mL)
MIC [17]: 25 µM (≈ 33 µg/mL)
MIC [18]: ≥ 50 µM

SMILES: CC[C@H](C)[C@H](NC(=O)[C@H](CCCN=C(N)N)NC(=O)[C@H](CCCN=C(N)N)NC(=O)[C@H](CC(C)C)NC(=O)[C@H](Cc1c[nH]c2ccccc12)NC(=O)[C@H](Cc1c[nH]c2ccccc12)NC(=O)[C@@H](N)Cc1c[nH]c2ccccc12)C(=O)N[C@@H](Cc1c[nH]c2ccccc12)C(N)=O [WWWLRRIW]
MIC [33]: 6.2 µM (≈ 8.06 µg/mL)
MIC [14]: 25 µM (≈ 32.5 µg/mL)
MIC [6]: > 50 µM
MIC [19]: 3.1 µM (≈ 4.03 µg/mL)
MIC [20]: 3.1 µM (≈ 4.03 µg/mL)

SMILES: CC[C@H](C)[C@H](NC(=O)[C@H](CCCCN)NC(=O)[C@H](CCCN=C(N)N)NC(=O)[C@H](CC(C)C)NC(=O)[C@H](Cc1c[nH]c2ccccc12)NC(=O)[C@H](Cc1c[nH]c2ccccc12)NC(=O)[C@H](Cc1c[nH]c2ccccc12)NC(=O)[C@@H](N)Cc1c[nH]c2ccccc12)C(N)=O [WWWWLRKI]
MIC [33]: 12.5 µM (≈ 15.9 µg/mL)
MIC [14]: 8.8 µM (≈ 11.2 µg/mL)
MIC [19]: 2.16 µM (≈ 2.74 µg/mL)

Further lines, results first:

MIC [9]: 11.5 µM (≈ 16 µg/mL)
MIC [8]: 4.32 µM (≈ 6 µg/mL)
MIC [10]: 46.1 µM (≈ 64 µg/mL)
SMILES: CC[C@H](C)[C@H](NC(=O)[C@H](C)NC(=O)[C@H](CC(C)C)NC(=O)[C@H](CCCN=C(N)N)NC(=O)[C@H](Cc1cnc[nH]1)NC(=O)[C@H](C)NC(=O)[C@H](C)NC(=O)[C@H](CCCN=C(N)N)NC(=O)[C@@H](N)CC(C)C)C(=O)NCC(=O)N[C@@H](CCCN=C(N)N)C(=O)N[C@@H](CCCN=C(N)N)C(N)=O [LRAAHRLAIGRR]

MIC [6]: 9.12 µM (≈ 16 µg/mL)
MIC [17]: 2.28 µM (≈ 4 µg/mL)
MIC [19]: 4.56 µM (≈ 8 µg/mL)
MIC [20]: 1.14 µM (≈ 2 µg/mL)
SMILES: CC[C@H](C)[C@H](NC(=O)[C@H](CC(=O)O)NC(=O)[C@H](Cc1c[nH]c2ccccc12)NC(=O)[C@H](CC(C)C)NC(=O)[C@@H](N)CCCN=C(N)N)C(=O)N[C@H](C(=O)N[C@@H](CCCN=C(N)N)C(=O)N[C@@H](CCCN=C(N)N)C(=O)N[C@@H](Cc1c[nH]c2ccccc12)C(=O)N[C@H](C(=O)NCC(=O)N[C@@H](Cc1c[nH]c2ccccc12)C(=O)N[C@@H](CC(C)C)C(N)=O)C(C)C)C(C)C [RLWDIVRRWVGWL]

MIC [21]: ≥ 100 µM
MIC [22]: ≥ 100 µM
MIC [23]: ≥ 100 µM
MIC [24]: ≥ 100 µM
MIC [25]: ≥ 100 µM
MIC [26]: ≥ 100 µM
MIC [27]: ≥ 100 µM
MIC [28]: ≥ 100 µM
MIC [29]: ≥ 100 µM
MIC [30]: ≥ 100 µM
MIC [31]: ≥ 100 µM
MIC [32]: ≥ 100 µM
SMILES: CC(C)C[C@H](NC(=O)[C@H](CCCCN)NC(=O)[C@H](CCCN=C(N)N)NC(=O)[C@H](Cc1cnc[nH]1)NC(=O)[C@H](C)NC(=O)[C@H](CCCN=C(N)N)NC(=O)[C@H](Cc1cnc[nH]1)NC(=O)CNC(=O)[C@H](Cc1ccccc1)NC(=O)[C@H](CCCN=C(N)N)NC(=O)[C@H](CCCN=C(N)N)NC(=O)CNC(=O)[C@H](Cc1cnc[nH]1)NC(=O)[C@H](CCCN=C(N)N)NC(=O)CNC(=O)[C@@H](NC(=O)[C@H](CCCCN)NC(=O)[C@@H](N)CO)C(C)C)C(=O)O [SKVGRHGRRFGHRAHRKL]

MIC [21]: ≥ 100 µM
MIC [22]: 9.38 µM (≈ 20.7 µg/mL)
MIC [23]: ≥ 100 µM
MIC [24]: 18.8 µM (≈ 41.5 µg/mL)
MIC [25]: 18.8 µM (≈ 41.5 µg/mL)
MIC [26]: ≥ 100 µM
MIC [27]: ≥ 100 µM
MIC [28]: ≥ 100 µM
MIC [29]: 18.8 µM (≈ 41.5 µg/mL)
MIC [30]: ≥ 100 µM
MIC [31]: ≥ 100 µM
MIC [32]: 12.5 µM (≈ 27.6 µg/mL)
SMILES: CC(C)C[C@H](NC(=O)[C@H](CCCCN)NC(=O)[C@H](CCCN=C(N)N)NC(=O)[C@H](Cc1cnc[nH]1)NC(=O)[C@H](C)NC(=O)[C@H](CCCN=C(N)N)NC(=O)[C@H](Cc1cnc[nH]1)NC(=O)CNC(=O)[C@H](Cc1ccccc1)NC(=O)[C@H](CCCN=C(N)N)NC(=O)[C@H](CCCN=C(N)N)NC(=O)[C@H](CC(C)C)NC(=O)[C@H](Cc1cnc[nH]1)NC(=O)[C@H](CCCN=C(N)N)NC(=O)CNC(=O)[C@@H](NC(=O)[C@H](CCCCN)NC(=O)[C@@H](N)CO)C(C)C)C(=O)O [SKVGRHLRRFGHRAHRKL]

MIC [21]: ≥ 100 µM
MIC [22]: 2.34 µM (≈ 5.31 µg/mL)
MIC [23]: ≥ 100 µM
MIC [24]: 4.69 µM (≈ 10.6 µg/mL)
MIC [25]: 3.13 µM (≈ 7.1 µg/mL)
MIC [26]: ≥ 100 µM
MIC [27]: ≥ 100 µM
MIC [28]: ≥ 100 µM
MIC [29]: 4.69 µM (≈ 10.6 µg/mL)
MIC [30]: ≥ 100 µM
MIC [31]: ≥ 100 µM
MIC [32]: 2.34 µM (≈ 5.31 µg/mL)
SMILES: CC(C)C[C@H](NC(=O)[C@H](CCCCN)NC(=O)[C@H](CCCN=C(N)N)NC(=O)[C@H](Cc1cnc[nH]1)NC(=O)[C@H](C)NC(=O)[C@H](CCCN=C(N)N)NC(=O)[C@H](Cc1cnc[nH]1)NC(=O)[C@H](CC(C)C)NC(=O)[C@H](Cc1ccccc1)NC(=O)[C@H](CCCN=C(N)N)NC(=O)[C@H](CCCN=C(N)N)NC(=O)[C@H](CC(C)C)NC(=O)[C@H](Cc1cnc[nH]1)NC(=O)[C@H](CCCN=C(N)N)NC(=O)CNC(=O)[C@@H](NC(=O)[C@H](CCCCN)NC(=O)[C@@H](N)CO)C(C)C)C(=O)O [SKVGRHLRRFLHRAHRKL]
